Experiments:
[1] = tested on: male Sprague-Dawley rats, occlusion of the left coronary artery; experiment: In vivo hemodynamic changes after coronary artery ligation; conditions: day 21 after coronary ligation; 10 mg/kg daily by gastric tube
[2] = tested on: male Sprague-Dawley rats, occlusion of the left coronary artery; experiment: In vivo hypertrophy after coronary artery ligation; conditions: rat model of Example 20
Protocol: (§1) Food and water were supplied ad libitum. […] Hemodynamic and histological assessments were made.
Hypertrophy is a physiological condition of enlargement (increased mass) due to increased stress. Cardiac hypertrophy is assessed by calculating the heart to body mass ratio. Treatment with PLP or compound XXIIb results in a decrease in cardiac hypertrophy, in the rat model described in Example 20.

[3] = tested on: male Sprague-Dawley rats, occlusion of the left coronary artery; experiment: In vivo infarct size and scar mass after coronary artery ligation; design: species or system rat; conditions: after 21 days, 10 mg/kg daily by gastric tube; for infarct size (as a percentage of left ventricle size): untreated control about 45
Protocol: as §1
After 21 days, once the hemodynamic data were obtained, the animals were sacrificed and both average dry scar mass to left ventricle mass (n=5/group) and infarct size (n=5/group) were measured. For infarct size measurement, hearts from the untreated and PLP/compound XXIIb-treated groups were fixed in formalin and embedded in paraffin. Six evenly spaced slices were cut across the left ventricle. […] sections were cut from each slice and mounted. Sections were stained with Trichrome to discriminate between fibrous scar and noninfarcted tissue. Using the free-drawing line tool in Scion Image v4.02b, infarct internal perimeter and left ventricle internal perimeter lengths were traced per oculum for each section. Noteworthy transmural scars were taken into account. Infarct size was then expressed as the average scar perimeter/ventricle perimeter ratio. Scar mass measurements were obtained by drying excised scar tissue and left ventricles at 50-60° C. for 72 hours.

[4] = tested on: platelets (platelet rich plasma); experiment: Inhibition of platelet aggregation (aggregometer, platelet rich plasma); assay type: cell-based; conditions: for Extent of aggregation as a percentage amplitude, 1 μg/mL collagen: agonist 1 μg/mL collagen; for Extent of aggregation as a percentage amplitude, 4 μM ADP: agonist 4 μM ADP; for Extent of aggregation as a percentage amplitude, 5 μg/mL collagen: agonist 5 μg/mL collagen; for Extent of aggregation as a percentage amplitude, 12 μM TRAP: agonist 12 μM TRAP
Protocol: Platelet rich plasma (PRP) was obtained by drawing whole blood into sodium citrate tubes (3.2%) and centrifuging at 700 rpm for 10 minutes. Platelet poor plasma (PPP) was obtained by centrifuging the remainder of the sample ntil the platelets were removed (3200 rpm for 10 minutes). The PRP was adjusted to a count of 280×10^9/L using a mixture of PRP and PPP. The incubation mixture consisted of 200 μL of platelets and 25 μL of the appropriate compound (18 mM stock for a final concentration of 2 mM and 4.5 mM stock for a final concentration of 500 μM), rendering an approximate final platelet count in the incubation mixture of 250×10^9/L. After incubation (30 minutes at room temperature, the cuvettes were incubated for 3 minutes at 37° C., transferred to the mixing wells and after the baselines transmittances were measured in an aggregometer (Chrono-Log 4), 25 μL of agonist was added to give a final concentration of 4 μM ADP, 1 μg/mL collagen, 5 μg/mL collagen or 12 μM thrombin receptor activating peptide (TRAP). Final transmittances were then measured in the aggregometer (lower percent transmittance represents higher aggregation). […] Table 24-1 gives the results of the extent of aggregation for several compounds as percentage amplitude read directly from the aggregometer.

Molecule: 4-methylimidazole pyridoxine [XXIIb]
- +dP/dt (rate of contraction) [1]: recoveries
- LVEDP in response to coronary occlusion [1]: reduced rises
- −dP/dt (rate of relaxation) [1]: recoveries
- cardiac hypertrophy (heart to body mass ratio) [2]: decrease
- dry scar to left ventricle mass ratio [3]: reductions similar in magnitude to that seen in the PLP group
- infarct size (as a percentage of left ventricle size) [3]: reduced
- Extent of aggregation as a percentage amplitude, 1 μg/mL collagen ([4]; compound 500 μM): 79%
- Extent of aggregation as a percentage amplitude, 4 μM ADP ([4]; compound 500 μM): 59%
- Extent of aggregation as a percentage amplitude, 5 μg/mL collagen ([4]; compound 500 μM): 82%
- Extent of aggregation as a percentage amplitude, 12 μM TRAP ([4]; compound 500 μM): 91%
- Extent of aggregation as a percentage amplitude, 1 μg/mL collagen ([4]; compound 2 mM): 32%
- Extent of aggregation as a percentage amplitude, 4 μM ADP ([4]; compound 2 mM): 46%
- Extent of aggregation as a percentage amplitude, 5 μg/mL collagen ([4]; compound 2 mM): 77%
- Extent of aggregation as a percentage amplitude, 12 μM TRAP ([4]; compound 2 mM): 84%

Molecule: Cc1ncc(CNc2ccc(C(=N)N)cc2)c(CO)c1O [Compound XXXV]
- Extent of aggregation as a percentage amplitude, 1 μg/mL collagen ([4]; compound 500 μM): 83%
- Extent of aggregation as a percentage amplitude, 4 μM ADP ([4]; compound 500 μM): 70%
- Extent of aggregation as a percentage amplitude, 5 μg/mL collagen ([4]; compound 500 μM): 75%
- Extent of aggregation as a percentage amplitude, 12 μM TRAP ([4]; compound 500 μM): 90%
- Extent of aggregation as a percentage amplitude, 1 μg/mL collagen ([4]; compound 2 mM): 79%
- Extent of aggregation as a percentage amplitude, 4 μM ADP ([4]; compound 2 mM): 15%
- Extent of aggregation as a percentage amplitude, 5 μg/mL collagen ([4]; compound 2 mM): 67%
- Extent of aggregation as a percentage amplitude, 12 μM TRAP ([4]; compound 2 mM): 11%

Molecule: Cc1ncc(COP(=O)(O)O)c(C=O)c1O [PLP, 3-hydroxy-2-methyl-5-[(phosphonooxy)methyl]-4-pyridine-carboxaldehyde, reference compound]
- +dP/dt (rate of contraction) [1]: recoveries
- LVEDP in response to coronary occlusion [1]: reduced rises
- −dP/dt (rate of relaxation) [1]: recoveries
- cardiac hypertrophy (heart to body mass ratio) [2]: decrease
- dry scar to left ventricle mass ratio [3]: reduced
- infarct size (as a percentage of left ventricle size) [3]: reduced
- Extent of aggregation as a percentage amplitude, 1 μg/mL collagen ([4]; compound 500 μM): 89%
- Extent of aggregation as a percentage amplitude, 4 μM ADP ([4]; compound 500 μM): 69%
- Extent of aggregation as a percentage amplitude, 5 μg/mL collagen ([4]; compound 500 μM): 87%
- Extent of aggregation as a percentage amplitude, 12 μM TRAP ([4]; compound 500 μM): 90%
- Extent of aggregation as a percentage amplitude, 1 μg/mL collagen ([4]; compound 2 mM): 84%
- Extent of aggregation as a percentage amplitude, 4 μM ADP ([4]; compound 2 mM): 16%
- Extent of aggregation as a percentage amplitude, 5 μg/mL collagen ([4]; compound 2 mM): 89%
- Extent of aggregation as a percentage amplitude, 12 μM TRAP ([4]; compound 2 mM): 91%

Source: patent publication US6897228B2, “Pyridoxine and pyridoxal analogues: new uses” (Medicure International Inc., priority 2000, dated 2005)
